Key:
[1] = known; cited from earlier work
antinociception = conditions: injected into the tails of mice; cited from earlier work
bone resorption = conditions: animal studies, cited from earlier work
[2] = Bone density of the infused subjects; assay type: in vivo, human; conditions: all three subjects
Protocol: (§1) Three subjects, suffering from chronic daily (longer than 1 year) axial mechanical pain of the spine, were given approximately 1.2 mg per kg pamidronate as an intravenous infusion over 4 hours once a day for three consecutive days (total 3.6 mg/kg).
(§2) Assessments of axial spinal pain using a numerical scale (0=no pain; 10=the worst pain imaginable) were performed at baseline and at 1 month, 2 month, 4 month, and 6 month follow-up visits.

[3] = Adverse effects in the infused subjects; assay type: in vivo, human
Protocol: as §1
as §2, with “On the second day of infusion, 2 of the 3 subjects reported myalgias that responded well to anti-inflammatory (NSAID) agents. […] Assessments” for “Assessments”

[4] = tested on: bone pain from metastatic cancer; conditions: patients suffering from bone pain from metastatic cancer; cited from earlier work
[5] = tested on: axial mechanical pain of the spine; test: Axial spinal pain on a numerical scale after intravenous infusion in subjects with chronic spinal mechanical pain; assay type: in vivo, human
Protocol: as §1
as §2, with “On the second day of infusion, 2 of the 3 subjects reported myalgias that responded well to anti-inflammatory (NSAID) agents. […] Assessments” for “Assessments”

[6] = Subject 1, baseline 8, scale 0-10, 1.2 mg/kg iv once a day for 3 days
[7] = Subject 2, baseline 8-9, scale 0-10, 1.2 mg/kg iv once a day for 3 days
[8] = Subject 3, baseline 5, scale 0-10, 1.2 mg/kg iv once a day for 3 days

For CC(=O)Nc1ccc(O)cc1 [acetaminophen], the “duration of analgesic effect” value [1] is listed as “only a few hours”.

For CC(O)(P(=O)(O)O)P(=O)(O)O [etidronate], the antinociceptive effect (antinociception) is given as “analgesic effect only at the highest dose tested”.

In the case of CC(=O)Oc1ccccc1C(=O)O [acetylsalicylic acid], the antinociceptive effect (antinociception) is listed as “dose-dependent antinociception”.

For O=P(O)(O)C(Cl)(Cl)P(=O)(O)O [clodronate], the antinociceptive effect (antinociception) is given as “dose-dependent antinociception”.

In the case of CC(C)Cc1ccc(C(C)C(=O)O)cc1 (centres unmarked) [ibuprofen], the “duration of analgesic effect” value [1] is given as “only a few hours”.

For NCCCC(O)(P(=O)(O)O)P(=O)(O)O [alendronate], the antinociceptive effect (antinociception) is listed as “analgesic effect only at the highest dose tested”.

For NCCC(O)(P(=O)(O)O)P(=O)(O)O [pamidronate], the antinociceptive effect (antinociception) is listed as “dose-dependent antinociception”, the “effect on bone resorption” value (bone resorption; doses recommended for the treatment of hypercalcemia) is listed as “inhibits bone resorption apparently without inhibiting bone formation and mineralization” and the “effect on accelerated bone resorption from osteoclast hyperactivity induced by various tumors” value (bone resorption) is listed as “inhibits the accelerated bone resorption”. The bone density change [2] was “increase in their bone density”, the “bone density change at 6 months post-infusion” value ([2]; 6 months post-infusion) was “increase in their bone density” and the subjects reporting myalgias ([3]; second day of infusion, responded well to NSAID agents) was 2 of the 3. The “hypocalcemia, cardiac, hepatic or renal impairments” value ([3]; three subjects, 3.6 mg/kg total iv) was “did not exhibit any hypocalcemia, cardiac, hepatic or renal impairments”, the “longest reported duration of analgesic effect” value [4] was 2-3 weeks and the “use of opioid agents” value ([5]; 2 months from initiation of infusion therapy) was “all subjects discontinued the opioid agents”. For the same compound, the “pain status of all three subjects 6 months after the 3-day therapy” value ([5]; 6 months after therapy, all three subjects) was “pain free”, the “axial spinal pain, numerical scale, 1 month” value (from here on “axial spinal pain … 1 month”) ([5]; Subject 1 (DDD and osteopenia), baseline 8, 0=no pain, 10=worst pain imaginable, 1.2 mg/kg iv over 4 h once a day for 3 days) was 4 and the “axial spinal pain, numerical scale, 2 months” value (“axial spinal pain … 2 months” below) [5, 6] was 0. The “axial spinal pain, numerical scale, 4 months” value (“axial spinal pain … 4 months” below) [5, 6] was 0, the “axial spinal pain, numerical scale, 6 months” value (“axial spinal pain … 6 months” below) [5, 6] was 0 and the “axial spinal pain … 1 month” value ([5]; Subject 2 (DDD and moderate osteoporosis), baseline 8-9, scale 0-10, 1.2 mg/kg iv once a day for 3 days) was 5. The “axial spinal pain … 2 months” value [5, 7] was 0, the “axial spinal pain … 4 months” value [5, 7] was 0 and the “axial spinal pain … 6 months” value [5, 7] was 0. For the same compound, the “axial spinal pain … 1 month” value ([5]; Subject 3 (DDD), baseline 5, scale 0-10, 1.2 mg/kg iv once a day for 3 days) was 0, the “axial spinal pain … 2 months” value [5, 8] was 0 and the “axial spinal pain … 4 months” value [5, 8] was 0. The “axial spinal pain … 6 months” value [5, 8] was 0 and the “duration of pain relieving effects” value ([5]; iv treatment of chronic spinal mechanical pain) was at least 6 months.

— patent publication US8772267B2, “Treatment of spinal mechanical pain” (New York University, priority 2002, dated 2014)
